Assay results: patent US5496947A, “Quinolone carboxylic acid derivatives” (Dong Wha Pharmaceutical Industrial Co., Ltd., priority 1994, dated 1996)
Where two headings read alike, the source gives them in different places.

What was measured:
Type in all cases: cell-based
[1] = test system: Serratia marcescens ATCC 8100; experiment: MIC, 2-fold dilution method in micro-well plate, S. marcescens
Description: (§1) The in vitro antibiotic activity of the present compound is measured using 2-fold dilution method with a micro-well plate and the bacteria are inoculated in about 10^5 cfu/ml after an overnight culture in a brain-heart infusion (BHI) broth at 37° C. The novel compounds of the present invention are converted to a hydrochloride salt form and diluted with a sterilized distilled water to make 10 mg/ml aqueous solution. After the mother liquor wherein the compound is diluted to the two-fold concentration has been obtained in the form of an aqueous solution, the respective 0.1 ml of diluted liquor is transferred to a well and is inoculated with 0.1 ml of the culture fluid to make about (10^5 -10^6)/2 cfu/ml.
(§2) After cultivation at 37° C., the minimum inhibitory concentration (MIC) is measured and recorded in Table I-V.
(§3) Table I-V show the minimum inhibitory concentrations (MIC).
Serratia marcescens ATCC 8100

[2] = test system: Enterobacter cloacae; experiment: MIC, 2-fold dilution method in micro-well plate, E. cloacae; conditions: read-out: Minimum Inhibitory Concentration
Description: as §1, §2, §3
Enterobacter cloacae ATCC 23355

[3] = test system: Acinetobacter calcoaceticus; experiment: MIC, 2-fold dilution method in micro-well plate, A. calcoaceticus
Description: as §1, §2
Table I-V show the minimum inhibitory concentrations (MIC). […]

[4] = test system: Proteus vulgaris ATCC 13315; experiment: MIC, 2-fold dilution method in micro-well plate, P. vulgaris
Description: as §1, §2, §3
Proteus vulgaris ATCC 13315

[5] = test system: Streptococcus pyrogens ATCC 19615; experiment: MIC, 2-fold dilution method in micro-well plate, S. pyrogens; conditions: S. pyrogenes ATCC19615, 37° C., read-out: Minimum Inhibitory Concentration
Description: as §1, §2, §3
Streptococcus pyrogens ATCC 19615

[6] = test system: Citrobacter freundii ATCC 8090; experiment: MIC, 2-fold dilution method in micro-well plate, C. freundii
Description: as §1, §2, §3
Citrobacter freundii ATCC 8090

[7] = test system: Shigella sonnei ATCC 25931; experiment: MIC, 2-fold dilution method in micro-well plate, S. sonnei; conditions: S. sonnei ATCC25931, 37° C., read-out: Minimum Inhibitory Concentration
Description: as §1, §2, §3
Shigella sonnei ATCC 25931

[8] = test system: Shigella flexneri ATCC 12022; experiment: MIC, 2-fold dilution method in micro-well plate, S. flexneri; conditions: S. flexneri ATCC12022, 37° C., read-out: Minimum Inhibitory Concentration
Description: as §1, §2, §3
Shigella flexneri ATCC 12022

[9] = test system: Streptococcus pneumoniae ATCC 6303; experiment: MIC, 2-fold dilution method in micro-well plate, S. pneumoniae; conditions: S. pneuinoniae ATCC6303, 37° C., read-out: Minimum Inhibitory Concentration
Description: as §1, §2, §3
Streptococcus pneumoniae ATCC 6303

[10] = test system: Pseudomonas aeruginosa ATCC 27853; experiment: MIC, 2-fold dilution method in micro-well plate, P. aeruginosa
Description: as §1, §2, §3
Pseudomonas aeruginosa ATCC 27853

[11] = test system: Salmonella typhimurium ATCC 14028; experiment: MIC, 2-fold dilution method in micro-well plate, S. typhimurium; conditions: Salmonella enterica, read-out: Minimum Inhibitory Concentration
Description: as §1, §2, §3
Salmonella typhimurium ATCC 14028

[12] = test system: Klebsiella pneumoniae ATCC 13883; experiment: MIC, 2-fold dilution method in micro-well plate, K. pneumoniae
Description: as §1, §2, §3
Klebsiella pneumoniae ATCC 13883

[13] = test system: Streptococcus faecalis ATCC 29212; experiment: MIC, 2-fold dilution method in micro-well plate, S. faecalis ATCC 29212; conditions: Enterococcus faecalis; S. faecalis ATCC29212, 37° C.; read-out: Minimum Inhibitory Concentration
Description: as §1, §2, §3
Streptococcus faecalis ATCC 29212

[14] = test system: Streptococcus faecalis ATCC 19433; experiment: MIC, 2-fold dilution method in micro-well plate, S. faecalis ATCC 19433; conditions: Enterococcus faecalis; S. faecalis ATCC19433, 37° C.; read-out: Minimum Inhibitory Concentration
Description: as §1, §2, §3
Streptococcus faecalis ATCC 19433

[15] = test system: Haemophilus influenza ATCC 35056; experiment: MIC, 2-fold dilution method in micro-well plate, H. influenzae; conditions: H. influenzae ATCC35056, 37° C.; read-out: Minimum Inhibitory Concentration
Description: as §1, §2, §3
Haemophilus influenza ATCC 35056

[16] = test system: Escherichia coli ATCC 25922; experiment: MIC, 2-fold dilution method in micro-well plate, E. coli
Description: as §1, §2, §3
Escherichia coli ATCC 25922

[17] = test system: Enterobacter aerogenes ATCC 13048; experiment: MIC, 2-fold dilution method in micro-well plate, E. aerogenes; conditions: Klebsiella aerogenes
Description: as §1, §2, §3
Enterobacter aerogenes ATCC 13048

[18] = ATCC8100, read-out: Minimum Inhibitory Concentration
[19] = A. calcoaceticus ATCC8090 (as in tables), 37° C., read-out: Minimum Inhibitory Concentration
[20] = P. vulgaris ATCC13315, 37° C., read-out: Minimum Inhibitory Concentration
[21] = ATCC8090, read-out: Minimum Inhibitory Concentration
[22] = ATCC27853, read-out: Minimum Inhibitory Concentration
[23] = ATCC13883, read-out: Minimum Inhibitory Concentration
[24] = E. coli ATCC25922, 37° C., read-out: Minimum Inhibitory Concentration
[25] = ATCC13048, read-out: Minimum Inhibitory Concentration
[26] = S. marcescens ATCC8100, 37° C., read-out: Minimum Inhibitory Concentration
[27] = ATCC13315, read-out: Minimum Inhibitory Concentration
[28] = P. aerugirnosa ATCC27853, 37° C., read-out: Minimum Inhibitory Concentration
[29] = E. cloacae ATCC23355 (as in tables), 37° C.
[30] = S. typhisurium ATCC14028, 37° C.
[31] = K. pneumoniae ATCC13883, 37° C., read-out: Minimum Inhibitory Concentration
[32] = E. aerogenes ATCC13048, 37° C., read-out: Minimum Inhibitory Concentration
[33] = C. freundii ATCC8090, 37° C., read-out: Minimum Inhibitory Concentration
[34] = ATCC25922, read-out: Minimum Inhibitory Concentration

Structure (SMILES)	MIC [1, 18] [µg/mL]	MIC [2] [µg/mL]	MIC [3, 19] [µg/mL]	MIC [4, 20] [µg/mL]	MIC [5] [µg/mL]	MIC [6, 21] [µg/mL]	MIC [7] [µg/mL]	MIC [8] [µg/mL]	MIC [9] [µg/mL]	MIC [10, 22] [µg/mL]	MIC [11] [µg/mL]	MIC [12, 23] [µg/mL]	MIC [13] [µg/mL]	MIC [14] [µg/mL]	MIC [15] [µg/mL]	MIC [16, 24] [µg/mL]	MIC [17, 25] [µg/mL]	MIC [1, 26] [µg/mL]	MIC [4, 27] [µg/mL]	MIC [10, 28] [µg/mL]	also measured
Cl.N[C@H]1CCN(c2nc3c(cc2F)c(=O)c(C(=O)O)cn3-c2ccncc2F)C1 [Example 11, 1-(3-fluoro-4-pyridyl)-6-fluoro-7-[(3S)-3-amino-1-pyrrolidinyl]-1,4-dihydro-4-oxo-1,8-naphthyridine-3-carboxylic acid hydrochloride]	0.156	0.156	1.25	0.313	2.5	0.156	0.01	0.156	1.25	0.156	0.156	0.156	0.625	0.625	0.156	0.078	0.156				
Cl.O=C(O)c1cn(-c2ccc(F)cn2)c2cc(N3CCNCC3)c(F)cc2c1=O [Example 17, 1-(5-fluoro-2-pyridyl)-6-fluoro-7-(1-piperazinyl)-1,4-dihydro-4-oxoquinoline-3-carboxylic acid hydrochloride]		1.25	2.5		5	1.25	0.625	0.625	5		1.25	0.625	2.5	5	1.25	0.313	1.25	2.5	0.625	1.25	
CC1CN(c2nc3c(cc2F)c(=O)c(C(=O)O)cn3-c2ccc(F)cn2)CC(C)N1.Cl (stereo not drawn) [Example 15, 1-(5-fluoro-2-pyridyl)-6-fluoro-7-(3,5-dimethyl-1-piperazinyl)-1,4-dihydro-4-oxo-1,8-naphthyridine-3-carboxylic acid hydrochloride]			0.625	1.25	10	0.313	0.078	0.313	10				5	5	2.5	0.625		1.25		1.25	MIC [2, 29]: 0.625 µg/mL; MIC [11, 30]: 1.25 µg/mL; MIC [12, 31]: 0.625 µg/mL; MIC [17, 32]: 1.25 µg/mL
Cl.N[C@H]1CCN(c2cc3c(cc2F)c(=O)c(C(=O)O)cn3-c2ccc(F)cn2)C1 [Example 22, 1-(5-fluoro-2-pyridyl)-6-fluoro-7-[(3S)-3-amino-1-pyrrolidinyl]-1,4-dihydro-4-oxoquinoline-3-carboxylic acid hydrochloride]			0.313	0.078	2.5		0.039	0.156	1.25				1.25	0.625	0.078	0.039		0.078		0.156	MIC [2, 29]: 0.078 µg/mL; MIC [6, 33]: 0.039 µg/mL; MIC [11, 30]: 0.078 µg/mL; MIC [12, 31]: 0.039 µg/mL; MIC [17, 32]: 0.078 µg/mL
CN1CCN(c2nc3c(cc2F)c(=O)c(C(=O)O)cn3-c2ccncc2F)CC1.Cl [Example 8, 1-(3-fluoro-4-pyridyl)-6-fluoro-7-(4-methyl-1-piperazinyl)-1,4-dihydro-4-oxo-1,8-naphthyridine-3-carboxylic acid hydrochloride]	0.625	0.625	1.25		10		0.625	0.313	5	0.625	0.313	0.625	5	5	0.625		0.625		0.313		MIC [6, 33]: 1.25 µg/mL; MIC [16, 34]: 0.313 µg/mL
CC1CN(c2cc3c(cc2F)c(=O)c(C(=O)O)cn3-c2ccncc2F)CC(C)N1.Cl (stereo not drawn) [Example 4, 1-(3-fluoro-4-pyridyl)-6-fluoro-7-(3,5-dimethyl-1-piperazinyl)-1,4dihydro-4-oxoquinoline-3-carboxylic acid hydrochloride]	1.25	0.625	2.5		10	1.25	0.625	1.25	10		1.25	0.625	5	5	1.25		1.25		0.625	0.625	MIC [16, 34]: 1.25 µg/mL
CC1CN(c2nc3c(cc2F)c(=O)c(C(=O)O)cn3-c2ccncc2F)CCN1.Cl (stereo not drawn) [Example 9, 1-(3-fluoro-4-pyridyl)-6-fluoro-7-(3-methyl-1-piperazinyl)-1,4-dihydro-4-oxo-1,8-naphthyridine-3-carboxylic acid hydrochloride]	1.25	0.625	10		10	1.25	0.625	0.625	5	0.625	0.625	1.25	2.5	2.5	1.25		0.625		0.625		MIC [16, 34]: 0.625 µg/mL
Cl.NC1CCN(c2cc3c(cc2F)c(=O)c(C(=O)O)cn3-c2ccncc2F)C1 (stereo not drawn) [Example 5, 1-(3-fluoro-4-pyridyl)-6-fluoro-7-(3-amino-1-pyrrolidinyl)-1,4-dihydro-4-oxoquinoline-3-carboxylic acid hydrochloride]	0.313	0.313		0.078	5	0.313	0.078	0.625	2.5		0.313		2.5	2.5	0.313	0.156				0.313	MIC [3, 21]: 0.313 µg/mL; MIC [12, 31]: 0.156 µg/mL; MIC [17, 32]: 0.156 µg/mL
Cl.O=C(O)c1cn(-c2ccncc2F)c2nc(N3CCNCC3)c(F)cc2c1=O [Example 7, 1-(3-fluoro-4-pyridyl)-6-fluoro-7-(1-piperazinyl)-1,4-dihydro-4-oxo-1,8-naphthyridine-3-carboxylic acid hydrochloride]			2.5		5		0.313	0.156	2.5	0.625	0.313		5	2.5	0.313	0.625		1.25	0.313		MIC [2, 29]: 0.625 µg/mL; MIC [6, 33]: 1.25 µg/mL; MIC [12, 31]: 0.625 µg/mL; MIC [17, 32]: 0.625 µg/mL
